# Earlier results as cited in patent US9809617B2, “Crystal form of regadenoson and preparation method thereof” (Shanghai Ziyuan Pharmaceutical Co., Ltd., priority 2015, dated 2017).
# Conditions: heat / humidity, as described for U.S. Pat. No. 7,732,595
row,Compound,stability of crystal form (in words)
1,CCNC(=O)c1cnn(-c2nc(N)c3ncn(C4O[C@H](CO)[C@@H](O)[C@H]4O)c3n2)c1 (stereo partly drawn) [Crystal form A],stable under heating under relative humidity stress conditions up to its melting point
2,CCNC(=O)c1cnn(-c2nc(N)c3ncn(C4O[C@H](CO)[C@@H](O)[C@H]4O)c3n2)c1 (stereo partly drawn) [amorphous form of regadenoson],unstable in atmospheric moisture
3,CCNC(=O)c1cnn(-c2nc(N)c3ncn(C4O[C@H](CO)[C@@H](O)[C@H]4O)c3n2)c1 (stereo partly drawn) [crystal form C],unstable after losing crystal water under a high temperature
